Results reported in ChEMBL document CHEMBL4346726 (Bioorg Med Chem Lett, 2019).

Tests used:
Hepacivirus hominis = assay: Binding affinity to HCV NS3/4a protease assessed as compound-protein adduct formation per mg protein using radiolabelled compound
[1] = Inhibition of HCV genotype 3a NS3/4a protease by enzymatic assay; design: species or system Hepatitis C virus subtype 3a
Hepatitis C virus = assay: Antiviral activity against HCV genotype 3a in RLuc cells assessed as reduction in viral replication by luciferase reporter gene assay; type: functional, organism-based, Hepacivirus hominis, subtype 3a

SMILES | PB (Hepacivirus hominis) [pmol/mg] | Ki [1] [nM] | EC50 (Hepatitis C virus; Hepatitis C virus, subtype 3a) [nM] | EC50 (Hepatitis C virus) [nM]
CC(C)(C)OC(=O)N[C@H]1CCCCC/C=C\[C@@H]2C[C@@]2(C(=O)NS(=O)(=O)C2CC2)NC(=O)[C@@H]2C[C@@H](OC(=O)N3Cc4cccc(F)c4C3)CN2C1=O | 202 | – | – | –
COc1ccc2nc3c(nc2c1)O[C@H]1CN(C(=O)[C@H](C(C)(C)C)NC(=O)O[C@@H]2C[C@H]2CCCCC3)[C@H](C(=O)N[C@]2(C(=O)NS(=O)(=O)C3CC3)C[C@H]2CC(F)F)[C@@H]1C | – | 0.92 | 375 | –
CCC[C@@H]1[C@@H]2CN(C(=O)[C@H](C(C)(C)C)NC(=O)O[C@@H]3C[C@H]3CCCCCc3nc4ccc(OC)cc4nc3O2)[C@@H]1C(=O)N[C@]1(C(=O)NS(=O)(=O)C2(C)CC2)C[C@H]1C(F)F | – | 0.12 | 36 | –
COc1ccc2nc3c(nc2c1)O[C@H]1CN(C(=O)[C@H](C(C)(C)C)NC(=O)O[C@@H]2C[C@H]2CCCCC3)[C@H](C(=O)N[C@]2(C(=O)NS(=O)(=O)C3(C)CC3)C[C@H]2C(F)F)[C@@H]1C1CC1 | – | 4.9 | 1160 | –
COc1ccc2c(O[C@@H]3C[C@H]4C(=O)N[C@]5(C(=O)NS(=O)(=O)C6CC6)C[C@H]5/C=C\CCCCN(C)C(=O)[C@@H]4C3)cc(-c3nc(C(C)C)cs3)nc2c1C | 22 | – | – | –
CC[C@@H]1[C@@H]2CN(C(=O)[C@H](C(C)(C)C)NC(=O)O[C@@H]3C[C@H]3CCCC3CC3c3nc4ccc(OC)cc4nc3O2)[C@@H]1C(=O)N[C@]1(C(=O)NS(=O)(=O)C2(C)CC2)C[C@H]1C(F)F (stereo in doubt; 45) | – | 1.7 | – | 128
COc1ccc2nc3c(nc2c1)O[C@H]1CN(C(=O)[C@H](C(C)(C)C)NC(=O)O[C@@H]2C[C@H]2CCCCC3)[C@H](C(=O)N[C@]2(C(=O)NS(=O)(=O)C3CC3)C[C@H]2CCF)[C@@H]1C | – | 1.3 | 419 | –
CC[C@@H]1[C@@H]2CN(C(=O)[C@H](C(C)(C)C)NC(=O)O[C@@H]3C[C@H]3CC/C=C/C(F)(F)c3nc4ccc(OC)cc4nc3O2)[C@@H]1C(=O)N[C@]1(C(=O)NS(=O)(=O)C2(C)CC2)C[C@H]1C(F)F | – | 0.053 | 5.3 | –
CC[C@@H]1[C@@H]2CN(C(=O)[C@H](C(C)(C)C)NC(=O)O[C@@H]3C[C@H]3CCCCCc3nc4ccc(OC)cc4nc3O2)[C@@H]1C(=O)N[C@]1(C(=O)NS(=O)(=O)C2(C)CC2)C[C@H]1C | – | 0.838 | 109 | –
COc1ccc2nc3c(nc2c1)O[C@@H]1C[C@@H](C(=O)N[C@]2(C(=O)NS(=O)(=O)C4(C)CC4)C[C@H]2C(F)F)N(C1)C(=O)[C@H](C(C)(C)C)NC(=O)O[C@@H]1C[C@H]1CCCCC3 | – | 0.165 | 74 | –
COc1ccc2nc3c(nc2c1)O[C@H]1CN(C(=O)[C@H](C(C)(C)C)NC(=O)O[C@@H]2C[C@H]2CCCCC3)[C@H](C(=O)N[C@]2(C(=O)NS(=O)(=O)C3(C)CC3)C[C@H]2C(F)F)[C@@H]1Cc1ccccc1 | – | 0.87 | 1110 | –
CC[C@@H]1[C@@H]2CN(C(=O)[C@H](C(C)(C)C)NC(=O)O[C@@H]3C[C@H]3CCCCC(F)c3nc4ccc(OC)cc4nc3O2)[C@@H]1C(=O)N[C@]1(C(=O)NS(=O)(=O)C2(C)CC2)C[C@H]1C(F)F (stereo partly drawn) | – | 0.13 | 35 | –
CC[C@@H]1[C@@H]2CN(C(=O)[C@H](C(C)(C)C)NC(=O)O[C@@H]3C[C@H]3CCCC3CC3c3nc4ccc(OC)cc4nc3O2)[C@@H]1C(=O)N[C@]1(C(=O)NS(=O)(=O)C2(C)CC2)C[C@H]1C(F)F (stereo in doubt; 46) | – | 9.4 | – | 829
COc1ccc2nc3c(nc2c1)O[C@H]1CN(C(=O)[C@H](C(C)(C)C)NC(=O)O[C@@H]2C[C@H]2CCCCC3)[C@H](C(=O)N[C@]2(C(=O)NS(=O)(=O)C3(C)CC3)C[C@H]2C(F)F)[C@@H]1CC(C)C | – | 0.63 | 1120 | –
CC[C@@H]1C[C@]1(NC(=O)[C@@H]1[C@H](C)[C@@H]2CN1C(=O)[C@H](C(C)(C)C)NC(=O)O[C@@H]1C[C@H]1CCCCCc1nc3ccc(OC)cc3nc1O2)C(=O)NS(=O)(=O)C1CC1 | – | 0.53 | 188 | –
